Test results published in PubChem BioAssay AID1963960 (Molecular Pharmacology Branch, DTP, NCI, 2024).

Tested on: MDA-MB-468 spheroids with HUVEC/MSC, viability
Assay: Anticancer human tumor MDA-MB-468 cell line growth inhibition [PI3K];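 further: spheroids exposed to agents for seven days before readout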;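 on viability, T/C: 100% = DMSO vehicle control viability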
Conditions: for IC50: curve of first compound; for viability, T/C: stronger effect = lower value
In short: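 Spheroid viability read-out. Co-cultures contained the tumor line plus HUVEC and human MSCs. Each agent was paired with a PI3K inhibitor (inavolisib, alpelisib, duvelisib, copanlisib) across half-log dilutions starting at clinical Cmax, or at 10 microM when Cmax was unknown.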

[1] = second compound 0.00316 µM, first compound 0.0316 µM
[2] = second compound 0.00316 µM, first compound 0.1 µM
[3] = second compound 0.00316 µM, first compound 0.316 µM
[4] = second compound 0.00316 µM, first compound 1 µM
[5] = second compound 0.00316 µM, first compound 3.16 µM
[6] = second compound 0.00316 µM, first compound 10 µM
[7] = second compound 0.01 µM, first compound 0.0316 µM
[8] = second compound 0.01 µM, first compound 0.1 µM
[9] = second compound 0.01 µM, first compound 0.316 µM
[10] = second compound 0.01 µM, first compound 1 µM
[11] = second compound 0.01 µM, first compound 3.16 µM
[12] = second compound 0.01 µM, first compound 10 µM
[13] = second compound 0.0316 µM, first compound 0.0316 µM
[14] = second compound 0.0316 µM, first compound 0.1 µM
[15] = second compound 0.0316 µM, first compound 0.316 µM
[16] = second compound 0.0316 µM, first compound 1 µM
[17] = second compound 0.0316 µM, first compound 3.16 µM
[18] = second compound 0.0316 µM, first compound 10 µM
[19] = second compound 0.1 µM, first compound 0.0316 µM
[20] = second compound 0.1 µM, first compound 0.1 µM
[21] = second compound 0.1 µM, first compound 0.316 µM
[22] = second compound 0.1 µM, first compound 1 µM
[23] = second compound 0.1 µM, first compound 3.16 µM
[24] = second compound 0.1 µM, first compound 10 µM
[25] = second compound 0.316 µM, first compound 0.0316 µM
[26] = second compound 0.316 µM, first compound 0.1 µM
[27] = second compound 0.316 µM, first compound 0.316 µM
[28] = second compound 0.316 µM, first compound 1 µM
[29] = second compound 0.316 µM, first compound 3.16 µM
[30] = second compound 0.316 µM, first compound 10 µM
[31] = second compound 1 µM, first compound 0.0316 µM
[32] = second compound 1 µM, first compound 0.1 µM
[33] = second compound 1 µM, first compound 0.316 µM
[34] = second compound 1 µM, first compound 1 µM
[35] = second compound 1 µM, first compound 3.16 µM
[36] = second compound 1 µM, first compound 10 µM

Compound: CCCS(=O)(=O)Nc1ccc(F)c(C(=O)c2c[nH]c3ncc(-c4ccc(Cl)cc4)cc23)c1F + COc1c(OCCCN2CCOCC2)ccc2c3n(c(=NC(=O)c4cnc(N)nc4)nc12)CCN3
- IC50 (second compound 0.00316 µM): 5170 nM
- IC50 (second compound 0.01 µM): 5380 nM
- IC50 (second compound 0.0316 µM): 4500 nM
- IC50 (second compound 0.1 µM): 2110 nM
- IC50 (second compound 0.316 µM): < 31.6 nM
- IC50 (second compound 1 µM): < 31.6 nM
- viability, T/C [1]: 84.8%
- viability, T/C [2]: 102%
- viability, T/C [3]: 84.6%
- viability, T/C [4]: 102%
- viability, T/C [5]: 74.1%
- viability, T/C [6]: 17.9%
- viability, T/C [7]: 84.2%
- viability, T/C [8]: 82.3%
- viability, T/C [9]: 93.9%
- viability, T/C [10]: 84.3%
- viability, T/C [11]: 75.6%
- viability, T/C [12]: 20%
- viability, T/C [13]: 74.1%
- viability, T/C [14]: 78.2%
- viability, T/C [15]: 76.5%
- viability, T/C [16]: 74.3%
- viability, T/C [17]: 64.9%
- viability, T/C [18]: 16.2%
- viability, T/C [19]: 55.8%
- viability, T/C [20]: 56.5%
- viability, T/C [21]: 64.7%
- viability, T/C [22]: 59.1%
- viability, T/C [23]: 45.2%
- viability, T/C [24]: 12.3%
- viability, T/C [25]: 28.1%
- viability, T/C [26]: 29.7%
- viability, T/C [27]: 29.1%
- viability, T/C [28]: 27.6%
- viability, T/C [29]: 26.6%
- viability, T/C [30]: 8.09%
- viability, T/C [31]: 4.14%
- viability, T/C [32]: 4.88%
- viability, T/C [33]: 4.04%
- viability, T/C [34]: 5.95%
- viability, T/C [35]: 5.41%
- viability, T/C [36]: 3.73%

Compound: Cn1ncc(Cl)c1-c1cc(C(=O)NC(CN)Cc2cccc(F)c2)sc1Cl (centres undefined) + CC(Nc1ccc2c(c1)OCCn1cc(N3C(=O)OCC3C(F)F)nc1-2)C(N)=O
- IC50 (second compound 0.00316 µM): 306 nM
- IC50 (second compound 0.01 µM): 359 nM
- IC50 (second compound 0.0316 µM): 284 nM
- IC50 (second compound 0.1 µM): 229 nM
- IC50 (second compound 0.316 µM): 157 nM
- IC50 (second compound 1 µM): 133 nM
- viability, T/C [1]: 89.7%
- viability, T/C [2]: 72.2%
- viability, T/C [3]: 42.9%
- viability, T/C [4]: 35.6%
- viability, T/C [5]: 22%
- viability, T/C [6]: 7.53%
- viability, T/C [7]: 83.7%
- viability, T/C [8]: 74.4%
- viability, T/C [9]: 44.8%
- viability, T/C [10]: 36.4%
- viability, T/C [11]: 25.6%
- viability, T/C [12]: 5.85%
- viability, T/C [13]: 91.2%
- viability, T/C [14]: 71.8%
- viability, T/C [15]: 39.9%
- viability, T/C [16]: 33.7%
- viability, T/C [17]: 22.1%
- viability, T/C [18]: 3.85%
- viability, T/C [19]: 78.7%
- viability, T/C [20]: 63.6%
- viability, T/C [21]: 39.8%
- viability, T/C [22]: 33.6%
- viability, T/C [23]: 20.8%
- viability, T/C [24]: 4.34%
- viability, T/C [25]: 75.8%
- viability, T/C [26]: 59.6%
- viability, T/C [27]: 33.8%
- viability, T/C [28]: 27.5%
- viability, T/C [29]: 19.2%
- viability, T/C [30]: 4.28%
- viability, T/C [31]: 76.2%
- viability, T/C [32]: 53%
- viability, T/C [33]: 37.2%
- viability, T/C [34]: 21.8%
- viability, T/C [35]: 18.9%
- viability, T/C [36]: 3.04%
